Active and inactive are the calls of the source. The rule behind the calls is not given here.
Tests used:
Histamine H3 receptor [1] = target: T1, Histamine H3 receptor (Homo sapiens, UniProt Q9Y5N1); assay: Displacement of [3H]N-alpha-methylhistamine from full length human H3 receptor expressed in HEK293 cell membranes after 90 mins
Mus musculus [2] = assay: Anticonvulsant activity in albino CF-1 mouse assessed as protection against 44 mA current-induced seizure at 50 mg/kg, ip after 4 hrs by 6 Hz psychomotor test; format: functional, organism-based
Mus musculus [3] = assay: Neurotoxicity in albino CF-1 mouse at 50 mg/kg, ip after 1 hr by rotarod test; format: toxicity, organism-based; settings: in vivo
Rattus norvegicus [4] = assay: Anticonvulsant activity in Sprague-Dawley rat assessed as protection against maximal electroshock-induced seizures at 30 mg/kg, po after 2 hrs; format: functional, organism-based
Mus musculus [5] = assay: Analgesic activity in ip dosed albino Swiss CD1 mouse assessed reduction in formalin-induced inflammatory pain by measuring reduction in time spent in licking pretreated prior to formalin injection measured at 15 to 30 mins post formalin injection; format: functional
[6] = target: Histamine H1 receptor (Homo sapiens) (UniProt P35367); assay: Displacement of [3H]-pyrilamine from human histamine H1 receptor expressed in CHO cell membranes at 1 uM relative to chlorpheniramine
Histamine H1 receptor (Homo sapiens), sequence (P35367 whole entry): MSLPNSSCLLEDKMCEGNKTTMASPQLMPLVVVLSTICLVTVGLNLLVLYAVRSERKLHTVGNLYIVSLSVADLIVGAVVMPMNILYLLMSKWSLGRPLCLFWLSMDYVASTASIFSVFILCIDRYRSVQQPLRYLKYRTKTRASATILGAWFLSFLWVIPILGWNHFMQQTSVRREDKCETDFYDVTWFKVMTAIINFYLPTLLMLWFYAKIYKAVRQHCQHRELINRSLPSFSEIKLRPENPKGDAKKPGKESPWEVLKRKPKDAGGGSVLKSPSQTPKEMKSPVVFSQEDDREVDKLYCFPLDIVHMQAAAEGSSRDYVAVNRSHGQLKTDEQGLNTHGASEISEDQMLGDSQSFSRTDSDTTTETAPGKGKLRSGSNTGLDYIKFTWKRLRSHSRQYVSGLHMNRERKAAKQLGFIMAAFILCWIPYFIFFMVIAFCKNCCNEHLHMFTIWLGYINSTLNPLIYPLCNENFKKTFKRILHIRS

Mus musculus [7] = assay: Neurotoxicity in albino CF-1 mouse at 65 mg/kg after 2 hrs by rotarod test; format: toxicity, organism-based; settings: in vivo
Mus musculus [8] = assay: Neurotoxicity in albino CF-1 mouse at 65 mg/kg after 4 hrs by rotarod test; format: toxicity, organism-based; settings: in vivo
Mus musculus [9] = assay: Anticonvulsant activity in albino CF-1 mouse assessed as protection against 32 mA current-induced seizure at 50 mg/kg, ip after 4 hrs by 6 Hz psychomotor test; format: functional, organism-based
Mus musculus [10] = assay: Neurotoxicity in albino CF-1 mouse at 30 mg/kg, ip after 1 hr by rotarod test; format: toxicity, organism-based; settings: in vivo
Mus musculus [11] = assay: Neurotoxicity in albino CF-1 mouse at 65 mg/kg after 0.25 hrs by rotarod test; format: toxicity, organism-based; settings: in vivo
Mus musculus [12] = assay: Anticonvulsant activity in albino CF-1 mouse assessed as protection against maximal electroshock-induced seizures at 50 mg/kg, ip after 0.25 hrs; format: functional, organism-based
[13] = Therapeutic index, ratio of ip dosed albino CF-1 mouse TD50 to ip dosed albino CF-1 mouse ED50 for 32 mA current-induced 6 Hz psychomotor test; format: toxicity, organism-based; settings: in vivo, read-out: TI
Mus musculus [14] = assay: Neurotoxicity in albino CF-1 mouse at 50 mg/kg, ip after 4 hrs by rotarod test; format: toxicity, organism-based; settings: in vivo
Mus musculus [15] = assay: Neurotoxicity in albino CF-1 mouse assessed as increase in subcutaneous pentylenetetrazole-induced continuous seizures at 50 mg/kg, ip measured after 0.5 hrs; format: toxicity, organism-based; settings: in vivo
[16] = target: Histamine H1 receptor (Cavia porcellus) (UniProt P31389); assay: Agonist activity at histamine H1 receptor in guinea-pig ileum assessed as induction of contractions at 1 to 3 uM after 15 mins; format: functional
Histamine H1 receptor (Cavia porcellus), sequence (P31389 whole entry): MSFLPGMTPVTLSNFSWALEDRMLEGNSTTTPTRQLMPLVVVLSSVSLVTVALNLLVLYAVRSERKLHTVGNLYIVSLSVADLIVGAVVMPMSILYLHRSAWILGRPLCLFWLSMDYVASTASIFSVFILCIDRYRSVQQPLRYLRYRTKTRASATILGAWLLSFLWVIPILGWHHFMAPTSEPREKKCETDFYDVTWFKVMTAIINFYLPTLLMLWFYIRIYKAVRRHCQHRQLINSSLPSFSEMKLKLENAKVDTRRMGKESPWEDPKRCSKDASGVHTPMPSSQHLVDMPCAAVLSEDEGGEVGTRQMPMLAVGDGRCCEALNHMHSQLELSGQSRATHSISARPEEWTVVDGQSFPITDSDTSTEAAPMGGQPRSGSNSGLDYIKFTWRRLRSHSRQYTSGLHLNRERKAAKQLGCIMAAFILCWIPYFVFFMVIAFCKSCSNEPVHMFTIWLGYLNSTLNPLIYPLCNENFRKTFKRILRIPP

Rattus norvegicus [17] = assay: Anticonvulsant activity in Sprague-Dawley rat assessed as protection against maximal electroshock-induced seizures at 30 mg/kg, ip after 0.25 hrs; format: functional, organism-based
Mus musculus [18] = assay: Cognition enhancing effect in albino Swiss CD-1 mouse assessed as reversal of scopolamine-induced amnesia at 20 to 30 mg/kg, ip treated 30 mins prior to acquisition trial followed by scopolamine challenge immediately after acquisition trial by passive avoidance test (reference value: 39.31 +/- 4.01 secs); format: functional, organism-based
[19] = target: 5-hydroxytryptamine receptor 7 (Homo sapiens, UniProt P34969); assay: Displacement of [3H]-5-carboxyamidotryptamine from human 5-HT7 receptor expressed in HEK293 cell membranes after 1 hr
5-hydroxytryptamine receptor 7, sequence (P34969 whole entry): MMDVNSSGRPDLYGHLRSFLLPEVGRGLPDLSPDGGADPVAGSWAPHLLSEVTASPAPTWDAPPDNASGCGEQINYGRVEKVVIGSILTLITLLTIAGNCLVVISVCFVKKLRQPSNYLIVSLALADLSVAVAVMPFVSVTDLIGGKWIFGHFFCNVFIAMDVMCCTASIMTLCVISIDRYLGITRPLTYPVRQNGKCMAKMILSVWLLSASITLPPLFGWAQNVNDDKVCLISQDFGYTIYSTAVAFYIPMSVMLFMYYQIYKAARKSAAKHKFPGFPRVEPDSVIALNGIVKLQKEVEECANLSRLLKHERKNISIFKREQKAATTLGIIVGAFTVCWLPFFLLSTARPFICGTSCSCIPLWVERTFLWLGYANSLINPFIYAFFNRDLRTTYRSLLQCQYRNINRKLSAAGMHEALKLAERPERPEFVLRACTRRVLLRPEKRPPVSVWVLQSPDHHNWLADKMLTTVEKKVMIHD

IMR-32 = assay: Cytotoxicity against human IMR32 cells assessed as reduction in cell viability after 72 hrs by MTS assay; format: cell-based; settings: IMR-32, 72 h
CYP3A4 = CYP3A4 (Homo sapiens, UniProt P08684); assay: Inhibition of CYP3A4 (unknown origin) at 25 uM by CYP3A4 P450-Glo assay; format: ADME
CYP3A4, sequence (P08684 whole entry): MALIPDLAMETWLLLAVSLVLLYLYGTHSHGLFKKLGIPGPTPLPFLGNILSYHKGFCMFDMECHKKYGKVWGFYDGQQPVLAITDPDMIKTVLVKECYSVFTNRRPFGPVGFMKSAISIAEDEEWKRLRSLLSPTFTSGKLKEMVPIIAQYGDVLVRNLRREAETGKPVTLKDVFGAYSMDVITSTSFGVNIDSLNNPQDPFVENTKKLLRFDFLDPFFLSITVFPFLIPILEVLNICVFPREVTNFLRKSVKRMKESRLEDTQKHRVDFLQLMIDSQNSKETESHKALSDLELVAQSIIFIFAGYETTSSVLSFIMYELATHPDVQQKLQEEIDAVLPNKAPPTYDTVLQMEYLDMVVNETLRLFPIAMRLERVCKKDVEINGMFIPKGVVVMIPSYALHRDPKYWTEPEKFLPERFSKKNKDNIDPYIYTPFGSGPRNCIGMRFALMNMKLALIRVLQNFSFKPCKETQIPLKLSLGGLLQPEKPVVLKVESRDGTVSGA

[20] = Neurotoxicity in ip dosed albino CF-1 mouse after 0.25 hrs by rotarod test; format: toxicity, organism-based; settings: in vivo
Histamine H3 receptor [21] = target: T1, Histamine H3 receptor; assay: Antagonist activity at human H3 receptor expressed in HEK293 cells assessed as inhibition of RAMH-induced reduction of forskolin-stimulated cAMP accumulation after 30 mins by Ulight-based TR-FRET assay; format: functional, cell-based
Mus musculus [22] = assay: Neurotoxicity in albino CF-1 mouse at 50 mg/kg, ip after 0.5 hrs by rotarod test; format: toxicity, organism-based; settings: in vivo
Mus musculus [23] = assay: Anticonvulsant activity in albino CF-1 mouse assessed as protection against 44 mA current-induced seizure at 50 mg/kg, ip after 0.25 hrs by 6 Hz psychomotor test; format: functional, organism-based
Rattus norvegicus [24] = assay: Anticonvulsant activity in Sprague-Dawley rat assessed as protection against maximal electroshock-induced seizures at 30 mg/kg, ip after 0.5 hrs; format: functional, organism-based
Mus musculus [25] = assay: Neurotoxicity in albino CF-1 mouse at 30 mg/kg, ip after 4 hrs by rotarod test; format: toxicity, organism-based; settings: in vivo
[26] = target: D(1A) dopamine receptor (Homo sapiens) (UniProt P21728); assay: Displacement of [3H]-SCH23390 from human dopamine D1 receptor expressed in HEK293 cell membranes at 1 uM relative to fluphenazin
D(1A) dopamine receptor (Homo sapiens), sequence (P21728 whole entry): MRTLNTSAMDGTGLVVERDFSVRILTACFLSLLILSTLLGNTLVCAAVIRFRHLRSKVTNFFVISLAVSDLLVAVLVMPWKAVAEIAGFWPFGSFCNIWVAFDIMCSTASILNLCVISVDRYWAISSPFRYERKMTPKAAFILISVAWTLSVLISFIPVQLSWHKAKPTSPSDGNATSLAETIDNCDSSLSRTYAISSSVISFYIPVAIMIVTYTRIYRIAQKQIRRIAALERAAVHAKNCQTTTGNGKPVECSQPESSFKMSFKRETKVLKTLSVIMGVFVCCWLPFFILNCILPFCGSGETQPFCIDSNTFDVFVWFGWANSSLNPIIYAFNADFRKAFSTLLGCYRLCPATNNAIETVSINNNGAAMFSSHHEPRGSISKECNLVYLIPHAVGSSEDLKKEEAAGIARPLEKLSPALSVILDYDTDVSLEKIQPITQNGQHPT

[27] = target: 5-hydroxytryptamine receptor 6 (Homo sapiens, UniProt P50406); assay: Displacement of [3H]-LSD from human 5-HT6 receptor expressed in HEK293 cell membranes after 1 hr
5-hydroxytryptamine receptor 6, sequence (P50406 whole entry): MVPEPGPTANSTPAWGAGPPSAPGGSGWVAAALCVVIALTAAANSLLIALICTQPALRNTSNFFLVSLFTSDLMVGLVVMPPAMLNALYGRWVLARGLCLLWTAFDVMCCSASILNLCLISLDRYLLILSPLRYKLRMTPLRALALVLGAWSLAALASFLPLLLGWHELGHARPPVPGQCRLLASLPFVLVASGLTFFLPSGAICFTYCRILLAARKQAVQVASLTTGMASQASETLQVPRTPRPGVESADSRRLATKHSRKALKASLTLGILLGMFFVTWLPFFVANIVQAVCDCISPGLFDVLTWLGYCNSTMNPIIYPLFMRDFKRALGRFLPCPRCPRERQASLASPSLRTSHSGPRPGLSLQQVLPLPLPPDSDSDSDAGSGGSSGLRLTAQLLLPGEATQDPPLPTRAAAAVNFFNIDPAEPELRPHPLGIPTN

[28] = Therapeutic index, ratio of po dosed Sprague-Dawley rat TD50 to po dosed Sprague-Dawley rat ED50 for MES assay; format: toxicity, organism-based; settings: in vivo, read-out: TI
Mus musculus [29] = assay: Neurotoxicity in albino CF-1 mouse at 50 mg/kg after 1 hr by rotarod test; format: toxicity, organism-based; settings: in vivo
Mus musculus [30] = assay: Neurotoxicity in albino CF-1 mouse at 30 mg/kg, ip after 2 hrs by rotarod test; format: toxicity, organism-based; settings: in vivo
[31] = Neurotoxicity in ip dosed Sprague-Dawley rat after 0.25 hrs by rotarod test; format: toxicity, organism-based; settings: in vivo
Mus musculus [32] = assay: Neurotoxicity in albino CF-1 mouse at 50 mg/kg after 4 hrs by rotarod test; format: toxicity, organism-based; settings: in vivo
HEK293 = assay: Cytotoxicity against HEK293 cells assessed as reduction in cell viability after 72 hrs by MTS assay; format: cell-based; settings: Homo sapiens, HEK293, 72 h
[33] = target: Muscarinic acetylcholine receptor M3 (Cavia porcellus) (UniProt Q8VH26); assay: Agonist activity at muscarinic M3 receptor in guinea-pig ileum assessed as induction of contractions at 1 to 3 uM after 15 mins; format: functional
Muscarinic acetylcholine receptor M3 (Cavia porcellus), sequence (Q8VH26 1-587): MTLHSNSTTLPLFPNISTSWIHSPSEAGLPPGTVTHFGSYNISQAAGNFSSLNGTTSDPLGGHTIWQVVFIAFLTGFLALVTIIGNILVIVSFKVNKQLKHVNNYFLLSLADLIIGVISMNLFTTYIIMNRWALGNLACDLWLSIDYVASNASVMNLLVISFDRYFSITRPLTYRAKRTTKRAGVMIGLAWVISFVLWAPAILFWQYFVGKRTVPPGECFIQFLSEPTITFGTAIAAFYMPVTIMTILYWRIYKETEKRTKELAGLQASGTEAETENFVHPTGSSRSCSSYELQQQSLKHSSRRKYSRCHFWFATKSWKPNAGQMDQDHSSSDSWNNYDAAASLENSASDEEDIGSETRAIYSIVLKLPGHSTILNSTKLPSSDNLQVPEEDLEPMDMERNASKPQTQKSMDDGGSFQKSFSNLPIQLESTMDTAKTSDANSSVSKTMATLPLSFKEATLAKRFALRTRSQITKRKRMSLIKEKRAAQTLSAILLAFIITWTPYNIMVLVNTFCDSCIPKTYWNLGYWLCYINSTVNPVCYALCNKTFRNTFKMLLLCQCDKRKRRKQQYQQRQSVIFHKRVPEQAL

T1 sequence (Q9Y5N1 whole entry): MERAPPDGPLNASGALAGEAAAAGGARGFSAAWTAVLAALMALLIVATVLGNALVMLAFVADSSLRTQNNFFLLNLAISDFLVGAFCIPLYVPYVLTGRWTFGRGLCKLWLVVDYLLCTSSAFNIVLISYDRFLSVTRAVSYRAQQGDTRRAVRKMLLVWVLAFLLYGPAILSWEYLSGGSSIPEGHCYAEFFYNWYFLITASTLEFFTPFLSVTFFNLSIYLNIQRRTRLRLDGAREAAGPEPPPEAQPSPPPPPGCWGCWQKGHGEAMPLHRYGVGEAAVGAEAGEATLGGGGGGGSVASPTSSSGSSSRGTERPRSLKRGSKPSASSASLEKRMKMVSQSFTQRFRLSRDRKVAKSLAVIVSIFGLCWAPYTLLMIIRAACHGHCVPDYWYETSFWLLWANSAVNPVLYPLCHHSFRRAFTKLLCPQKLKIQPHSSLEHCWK

c1ccc2c(OCCCCCN3CCCCC3)cccc2c1
Ki (Histamine H3 receptor [1]): 53.9 nM
Activity (Mus musculus [2]): inactive
Activity (Mus musculus [3]): Non-Toxic
Activity (Rattus norvegicus [4]): inactive
ED50 (Mus musculus [5]): 30 mg/kg
inhibition [6]: 17%
Activity (Mus musculus [7]): Non-Toxic
Activity (Mus musculus [8]): Non-Toxic
Activity (Mus musculus [9]): inactive
Activity (Mus musculus [10]): Non-Toxic
Activity (Mus musculus [11]): Non-Toxic
Activity (Mus musculus [12]): Active
selectivity ratio [13]: 2.9
Activity (Mus musculus [14]): Non-Toxic
Activity (Mus musculus [15]): Non-Toxic
Activity [16]: inactive
Activity (Rattus norvegicus [17]): Active
Activity (Mus musculus [18]): Active
Ki [19]: 2310 nM
IC50 (IMR-32): > 50 µM
inhibition at 25 µM (CYP3A4): 50%
TD50 at 0.25 h [20]: 94.8 mg/kg
IC50 (Histamine H3 receptor [21]): 165 nM
inhibition (Histamine H3 receptor [21]): Dose-dependent effect
Activity (Mus musculus [22]): Non-Toxic
Activity (Mus musculus [23]): inactive
Activity (Rattus norvegicus [24]): Active
Activity (Mus musculus [25]): Non-Toxic
inhibition [26]: 6.7%
Ki [27]: 2540 nM
selectivity ratio [28]: > 6.4
Activity (Mus musculus [29]): Non-Toxic
Activity (Mus musculus [30]): Non-Toxic
TD50 at 0.25 h [31]: 60.6 mg/kg
Activity (Mus musculus [32]): Non-Toxic
IC50 (HEK293): > 50 µM
Activity [33]: inactive

From ChEMBL document CHEMBL4118139, “Novel naphthyloxy derivatives - Potent histamine H3 receptor ligands. Synthesis and pharmacological evaluation” (Bioorg Med Chem, 2018)
